Experimental data as given in US11723907B2, “Anti-aging compounds” (THE CLEVELAND CLINIC FOUNDATION, priority 2017, dated 2023).

Tests used:
cytochrome c = test: Enzymatic NAD(P)H oxidation / cytochrome c reduction catalyzed by N2N1; type: biochemical
Experimental: FIGS. 5A-5C provide graphs and schemes relating to the N2N1 mechanism of action. […] No specific substrate was added into reaction mix, therefore, it was concluded that reaction was driven by slow reduction of molecular oxygen dissolved into reaction buffer. The hypothetical reaction equation is shown below reaction plots. (B) The proposed molecular mechanism of possible substrate reduction catalyzed by N2N1. (C) Addition of peroxide or cytochrome c into reaction allowed us to identify cytochrome c as the most preferable substrate for the N2N1 driven enzymatic reaction. […] It was interesting to notice that addition of cytochrome c to non-enzymatic reaction reduced the reaction rate. […] The hypothetical reaction equation is show below the reaction plots.
FIGS. 6A-6B provide graphs showing the enzymatic reduction of cytochrome C catalyzed by N2N1 can utilize both NADH and NADPH. (A) The enzymatic electrons transfer from NADH to cytochrome c driven by N2N1 was monitored by decrease in absorption at 340 nm (NADH) and increase in absorption at 550 nm (cytochrome c). The absorbance spectrum was screened at the end of the reaction (˜1 hour). The hypothetical reaction equation is shown below the reaction plots. (B) The enzymatic electrons transfer from NADPH to cytochrome c driven by N2N1 was monitored by decrease in absorption at 340 nm (NADPH) and increase in absorption at 550 nm (cytochrome c). The hypothetical reaction equation is shown below the reaction plots.
To evaluate possible participation of mitochondrial NADH oxidoreductases, in particular Complex I and III, the […] was run in the presence of rotenone or antimycin A (2 μM). The acquired data allowed us to specify the most probable candidate that carry out the transfer electrons from NAD(P)H to cytochrome C driven by N2N1. The NQO1 protein would be the most likely candidate, while proteins from CYB5 family still cannot be ruled out.
Bonkowski et al., Nature reviews. Molecular cell biology 17, 679-690 (2016); Orr et al., Antioxidants & redox signaling 19, 788-803 (2013). It quite possible, that NAD(P)H oxidation catalyzed by N2N1 is performed by NADH:cytochrome b5 reductases (CYB5 . . . ) or NAD(P)H:quinone oxidoreductase (NQO1) reductase (FIG. 3C). The inventors found by RNA-seq analysis that fourteen genes from CYB5 family were expressed in normal fibroblast. NQO1 was also detected at the high level of expression. These reductases connect aerobic metabolism with aging by directed electron flow from NAD(P)H to oxygen, cytochrome C, and peroxide. Jimenez-Hidalgo et al., Aging cell 8, 140-151 (2009). […]

[1] = tested on: erythropoietin-dependent UT7 cells; test: Growth of erythropoietin-dependent UT7 cells; type: cell-based

Compound	catalysis of enzymatic NADH and NADPH conversion (cytochrome c; 1 μM)	time to complete reduction of cytochrome c (cytochrome c; 0.5 mM cytochrome c, NADH or NADPH) [min]	growth support [1]
O=C1/C(=N/O)C=Cc2ccccc21 [N2N1, 1-naphthoquinone-2-monoxime]	actively catalyze	10 to 15	
O=C1NC(=O)C(=NO)C(=O)N1 [VA, 2,4,5,6(1H,3H)-pyrimidine-tetrone 5-oxime]			does not support the growth
